What was measured:
[1] = tested on: human DP cells; assay: MTT cell proliferation assay, DP cells; type: cell-based; conditions: 48 h
From the text: To design transdermally deliverable AdipoR1 agonist, we further assessed the 15‐mer sequence by cutting it into several 5‐mer peptides (Fig EV1B) (Bos & Meinardi, [2000]). Based on the fact that AdipoRs are expressed in HF cells, including dermal papilla (DP) and outer root sheath (ORS) cells (Won et al, [2012]), we performed a cell proliferation assay on human DP and ORS cells to see if there is any potential biological effect of the 5‐mer peptides on the human HF cells.
Dermal papilla cells and ORS cells were seeded into a 96‐well plate (1.0 × 10^4 cells/well) with serum‐free culture media for 24 h and then treated with each candidate 5‐mer peptide (in 0.5 μg/ml or 5 μg/ml) for 48 h. After the addition of MTT solution (20 μl, 5 mg/ml) to each well, the cells were incubated for 4 h at 37°C in the dark room and then incubated with dimethyl sulfoxide (DMSO, 200 μl) for 20 min at room temperature. The samples were assessed by measuring the absorbance at 570 nm with an absorbance microplate reader (VersaMax).

[2] = tested on: VEGF mRNA; assay: qRT-PCR growth factor gene expression in DP cells, VEGF; type: cell-based, human; conditions: for mRNA_VEGF: DP cells
From the text: (§1) Next, we investigated the downstream effects of P5 on hair growth factor genes and proteins in DP cells. […] We tested whether P5 can also increase the mRNA levels and proteins of hair growth factors in DP cells: IGF‐1, VEGF, HGF, platelet‐derived growth factor alpha (PDGFA), and fibroblast growth factor (FGF) 7, which are known to induce or maintain the anagen phase of the hair cycle (Jindo et al, [1994]; Philpott et al, [1994]; Yano et al, [2001]; Jang, [2005]; Tomita et al, [2006]; Iino et al, [2007]).
(§2) Total RNA was isolated from P5‐treated DP cells using RNAiso Plus (#9109; TaKaRa). We used the total RNA (1 µg) for cDNA synthesis using a RevertAid First Strand cDNA Synthesis Kit (Thermo Fisher) according to the manufacturer's instructions. The mRNA expression levels were quantified on a 7500 Real‐time PCR System (Thermo Fisher) using TB Green Premix Ex Taq (TaKaRa Bio): human IGF‐1, VEGF, HGF, PDGFA, FGF7, and glyceraldehyde 3‐phosphate dehydrogenase (GAPDH) (Appendix Table S2). The relative expression levels of each gene were determined by the 2^‐ΔΔCT method.

[3] = tested on: FGF7 mRNA; assay: qRT-PCR growth factor gene expression in DP cells, FGF7; type: cell-based, human; conditions: for mRNA_FGF7: DP cells
From the text: as §1, §2

[4] = tested on: VEGF protein; assay: Growth factor protein quantitation in DP cell medium, VEGF; type: cell-based, human; conditions: for protein_VEGF: DP cell medium
From the text: as §1
(§3) Human DP cells were grown on a 100‐mm cell culture dish to 100% confluency. After washed by PBS three times, the cells were cultured with serum‐free DMEM and treated with P5. After 48 h, the medium was collected and filtered by a […]. The filtrate was then concentrated using a centrifugal concentrator (Vivaspin 6, 10‐kDa molecular weight cutoff, centrifuged 2,600 g at 4°C for 13 min, Sartorius Stedim Biotech). The signals of each protein in the concentrated media were detected and quantified, based on the enzyme‐linked immunosorbent assay (Human Cytokine Antibody Array C2000, RayBiotech).

[5] = tested on: HGF protein; assay: Growth factor protein quantitation in DP cell medium, HGF; type: cell-based, human; conditions: for protein_HGF: DP cell medium
From the text: as §1, §3

[6] = tested on: PDGFA protein; assay: Growth factor protein quantitation in DP cell medium, PDGFA; type: cell-based, human; conditions: for protein_PDGFA: DP cell medium
From the text: as §1, §3

[7] = tested on: FGF7 protein; assay: Growth factor protein quantitation in DP cell medium, FGF7; type: cell-based, human; conditions: for protein_FGF7: DP cell medium
From the text: as §1, §3

[8] = P5 5μM, relative to Control = 1, replicate 1
[9] = P5 5μM, relative to Control = 1, replicate 2
[10] = P5 5μM, relative to Control = 1, replicate 3
[11] = P5 5μM, relative to Control = 1, replicate 4
[12] = P5 25μM, relative to Control = 1, replicate 1
[13] = P5 25μM, relative to Control = 1, replicate 2
[14] = P5 25μM, relative to Control = 1, replicate 3
[15] = P5 25μM, relative to Control = 1, replicate 4
[16] = P5-treated DP cells, 48 h medium, n = 3

“GLYYF [P5, GST-fused (GST-P5) in pulldown assays]” was tested, and the “Relative cell proliferation, DP” value ([1]; 0.5μg/ml, control = 1, replicate 1) was 1.11, the “Relative cell proliferation, DP” value ([1]; 0.5μg/ml, control = 1, replicate 2) was 1.117 and the “Relative cell proliferation, DP” value ([1]; 0.5μg/ml, control = 1, replicate 3) was 1.106. The “Relative cell proliferation, DP” value ([1]; 5μg/ml, control = 1, replicate 1) was 1.094, the “Relative cell proliferation, DP” value ([1]; 5μg/ml, control = 1, replicate 2) was 1.179 and the “Relative cell proliferation, DP” value ([1]; 5μg/ml, control = 1, replicate 3) was 1.068. The “Relative cell proliferation, DP” value ([1]; 5μg/ml, control = 1, replicate 4) was 1.07, the “Relative cell proliferation, DP” value ([1]; 5μg/ml, control = 1, replicate 5) was 1.01 and the “Cell proliferative effect, DP cells” value ([1]; 0.5 or 5 μg/ml, Paired t-test vs control) was “significant cell proliferative effects”. For the same substance, the mRNA_VEGF [2, 8] was 1.194, the mRNA_VEGF [2, 9] was 1.24 and the mRNA_VEGF [2, 10] was 0.9876. For the same substance, the mRNA_VEGF [2, 11] was 0.849, the mRNA_VEGF [2, 12] was 2.123 and the mRNA_VEGF [2, 13] was 1.672. The mRNA_VEGF [2, 14] was 2.456, the mRNA_VEGF [2, 15] was 1.575 and the “VEGF mRNA expression” value ([2]; P5-treated DP cells, n = 4) was “significantly increased”. The mRNA_FGF7 [3, 8] was 1.288, the mRNA_FGF7 [3, 9] was 1.147 and the mRNA_FGF7 [3, 10] was 3.986. It also gave a mRNA_FGF7 [3, 11] of 1.127, a mRNA_FGF7 ([3]; P5 5μM, relative to Control = 1, replicate 5) of 3.017 and a mRNA_FGF7 ([3]; P5 5μM, relative to Control = 1, replicate 6) of 4.5839. The mRNA_FGF7 [3, 12] was 1.191, the mRNA_FGF7 [3, 13] was 1.18 and the mRNA_FGF7 [3, 14] was 4.101. The mRNA_FGF7 [3, 15] was 1.133, the mRNA_FGF7 ([3]; P5 25μM, relative to Control = 1, replicate 5) was 2.672 and the mRNA_FGF7 ([3]; P5 25μM, relative to Control = 1, replicate 6) was 4.897. For the same substance, the “FGF7 mRNA expression” value ([3]; P5-treated DP cells, n = 6) was “significantly increased”, the protein_VEGF [4, 8] was 1.476 and the protein_VEGF [4, 9] was 1.303. For the same substance, the protein_VEGF [4, 10] was 1.526, the protein_VEGF [4, 12] was 1.967 and the protein_VEGF [4, 13] was 2.185. For the same substance, the protein_VEGF [4, 14] was 1.674, the “VEGF protein expression level” value [4, 16] was “elevated” and the protein_HGF [5, 8] was 1.103. For the same substance, the protein_HGF [5, 9] was 1.31, the protein_HGF [5, 10] was 1.677 and the protein_HGF [5, 12] was 1.711. The protein_HGF [5, 13] was 2.432, the protein_HGF [5, 14] was 3.924 and the “HGF protein expression level” value [5, 16] was “elevated”. For the same substance, the protein_PDGFA [6, 8] was 2.032, the protein_PDGFA [6, 9] was 1.0925 and the protein_PDGFA [6, 10] was 1.228. It also gave a protein_PDGFA [6, 12] of 3.073, a protein_PDGFA [6, 13] of 1.25 and a protein_PDGFA [6, 14] of 1.481. For the same substance, the “PDGFA protein expression level” value [6, 16] was “elevated”, the protein_FGF7 [7, 8] was 1.396 and the protein_FGF7 [7, 9] was 1.679. It also gave a protein_FGF7 [7, 10] of 1.269, a protein_FGF7 [7, 12] of 3.318 and a protein_FGF7 [7, 13] of 3.35. The protein_FGF7 [7, 14] was 1.357 and the “FGF7 protein expression level” value [7, 16] was “elevated”.
